# Positions count from the first letter of the chain named. Values joined by “and” are separate entries in the source; they are usually repeats but may differ in a detail not shown here. Identical values can stand only once.
# Key:
# [1] = target: T1, GluD2-Lc(Y770F) (Rattus norvegicus, UniProt Q63226, A654T/Y770F); assay: Two-electrode voltage clamp in Xenopus oocytes, inhibition of spontaneous currents; format: cell-based; conditions: fraction of spontaneous current inhibited by saturating D-serine
# T1 construct: the function of full-length receptors as well, we introduced them into the GluD2 lurcher mutant (GluD2-Lc); expressed in transfected cells; host or cells: Xenopus laevis oocytes injected with cRNA
# T1 sequence (Q63226 24-1007 A654T/Y770F): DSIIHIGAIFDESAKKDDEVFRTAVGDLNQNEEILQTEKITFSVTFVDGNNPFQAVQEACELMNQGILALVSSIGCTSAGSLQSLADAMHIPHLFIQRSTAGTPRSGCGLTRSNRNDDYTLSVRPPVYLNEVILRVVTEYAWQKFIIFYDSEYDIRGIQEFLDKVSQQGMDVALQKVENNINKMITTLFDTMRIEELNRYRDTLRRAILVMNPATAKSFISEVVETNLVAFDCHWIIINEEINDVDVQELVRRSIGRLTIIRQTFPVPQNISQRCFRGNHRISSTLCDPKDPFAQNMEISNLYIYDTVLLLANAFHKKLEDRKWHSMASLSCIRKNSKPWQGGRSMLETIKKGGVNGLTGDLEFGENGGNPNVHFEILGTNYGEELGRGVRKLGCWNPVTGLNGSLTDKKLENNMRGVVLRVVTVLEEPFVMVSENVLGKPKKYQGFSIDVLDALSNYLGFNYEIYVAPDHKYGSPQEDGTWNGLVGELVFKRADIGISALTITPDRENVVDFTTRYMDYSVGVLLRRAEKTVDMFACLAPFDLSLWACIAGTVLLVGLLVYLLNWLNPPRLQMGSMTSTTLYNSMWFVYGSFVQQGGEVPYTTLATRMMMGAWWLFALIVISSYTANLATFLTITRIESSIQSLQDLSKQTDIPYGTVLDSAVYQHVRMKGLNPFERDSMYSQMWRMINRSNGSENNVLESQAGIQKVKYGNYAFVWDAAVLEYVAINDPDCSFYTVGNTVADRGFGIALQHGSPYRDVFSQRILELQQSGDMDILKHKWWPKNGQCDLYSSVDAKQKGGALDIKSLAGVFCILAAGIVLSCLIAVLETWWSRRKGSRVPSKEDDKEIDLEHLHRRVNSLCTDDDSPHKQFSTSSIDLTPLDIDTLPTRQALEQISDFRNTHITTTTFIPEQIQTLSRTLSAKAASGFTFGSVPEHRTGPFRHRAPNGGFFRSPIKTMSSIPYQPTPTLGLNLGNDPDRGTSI
# From the text: (§1) All cDNAs for expression in Xenopus oocytes were cloned into the vector pSGEM[30]. Point mutants of GluD2-Lc were constructed by overlap extension PCR with mutagenic oligonucleotide primers. The GluD2-Lc-(H)GluN1 chimera was constructed by transferring the S1- and S2-encoding sequences from GluD2-LBD-(H)GluN1 to GluD2-Lc via overlap extension PCR using tail primers. The S1 and S2 sequences were transferred separately, yielding GluD2-Lc-(HS1)GluN1 and GluD2-Lc-(HS2)GluN1 constructs. GluD2-Lc-(H)GluN1 was then produced from these by another overlap extension PCR. Complementary RNA (cRNA) for injection into oocytes was synthesised from 1 μg of linearised template DNA with the mMESSAGE mMACHINE in vitro transcription kit (Ambion, Austin, TX, USA).
# (§2) Oocytes were obtained by surgically removing parts of the ovaries from Xenopus laevis (Nasco, Fort Atkinson, WI, USA) anaesthetised with 1.5 g/L 3-aminobenzoic acid ethylester (Sigma, Taufkirchen, Germany). […] Oocytes were injected with 11 ng cRNA (10 ng of each cRNA for co-expression of GluN1 and GluN2A) using a nanoliter injector (WPI, Sarasota, FL, USA). Four days after cRNA injection, current responses were recorded under voltage clamp at –70 mV with a Turbo Tec-10CD amplifier (npi electronic, Tamm, Germany) controlled by Patchmaster software (HEKA, Lambrecht, Germany). Currents were filtered with a 20 Hz low-pass filter and then digitised with a sampling rate of 50 Hz. Recording electrodes were pulled from borosilicate glass (Hilgenberg, Malsfeld, Germany) with an L/M-3P-A vertical pipette puller (List-Medical), filled with 3 M KCl, and had resistances of 0.5–5 MΩ (voltage electrode) or 0.5–1.5 MΩ (current electrode). Recordings were performed in a 50 μL chamber under constant superfusion with extracellular solution at a flow rate of 3–5 mL/min. […] Finally, Ba-NFR and then NMDGR were applied again to check for reversibility.
# [2] = target: T2, GluD2-Lc(Y543Q) (Rattus norvegicus, UniProt Q63226, A654T/Y543Q); assay: as above; format: cell-based; conditions: fraction of spontaneous current inhibited by saturating D-serine
# T2 construct: the function of full-length receptors as well, we introduced them into the GluD2 lurcher mutant (GluD2-Lc); expressed in transfected cells; host or cells: Xenopus laevis oocytes injected with cRNA
# T2 sequence (Q63226 24-1007 Y543Q/A654T): T1 sequence (Q63226 24-1007 A654T/Y770F) with Y520Q, F747Y
# From the text: as §1, §2
smiles,measurement,setting,value
N[C@H](CO)C(=O)O [D-serine],D-serine efficacy Mean ± SEM,[1],59.9 ± 1.7%
same,D-serine efficacy Mean ± SEM,[2],36% and 36.2 ± 0.6%
